Source: PubChem BioAssay (NCI)
Where “and” joins values, the source holds several entries; their conditions need not be identical. Equal entries are not always repeated.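 Protocol summary: plate cells (96-well), add compound at 5 concentrations, incubate 48 h, interpolate endpoints linearly. The concentration for 50% growth inhibition is given as GI50. TGI: total growth inhibition.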

Tests used:
Assay in all cases: NCI anticancer screen, dose series, 48 h
[1] = tested on: 786-0 renal
[2] = tested on: A549 NSCLC
[3] = tested on: HL-60(TB) leukemia
[4] = tested on: HOP-92 NSCLC
[5] = tested on: LOX IMVI melanoma
[6] = tested on: MDA-MB-231 breast
[7] = tested on: SK-MEL-2 melanoma
[8] = tested on: SK-MEL-28 melanoma
[9] = tested on: U251 CNS

Compound | TGI [1] | TGI [2] | TGI [3] | TGI [4] | TGI [5] | TGI [6] | TGI [7] | TGI [8] | TGI [9] | GI50 [2] | GI50 [4] | GI50 [5] | GI50 [6] | GI50 [7] | GI50 [8] | GI50 [9]
COc1ccc(NC(=S)NC(=O)c2ccc3c(c2)Sc2ccccc2O3)c([N+](=O)[O-])c1 | 56.5 µM | > 100 µM | 82.1 µM | 44.9 µM | > 100 µM | 62.8 µM | 96.2 µM | > 100 µM | 60.6 µM | – | – | – | – | – | – | –
COc1cc(/C=C/C=C2\CC/C(=C\C=C\c3ccc(O)c(OC)c3)C2=O)ccc1O | > 100 µM | > 100 µM | > 63.8 µM | > 100 µM | > 100 µM | > 100 µM | > 100 µM | > 100 µM | > 100 µM | – | – | – | – | – | – | –
CCOC(=O)C#Cc1ccccc1 | 21.5 µM | 58.3 µM | 36.5 µM | 36.9 µM | 14.9 µM | 95.1 µM | 5.86 µM | 44.3 µM | 25.9 µM | – | – | – | – | – | – | –
CC(C)OC(=O)OCSc1ccccc1N=Cc1cccc([N+](=O)[O-])c1 | > 10 µM | > 10 µM | > 10 µM | > 10 µM | > 10 µM | > 10 µM | > 10 µM | > 10 µM | > 10 µM | – | – | – | – | – | – | –
S=c1cc(-c2ccc3c(c2)OCO3)s[nH]1 | > 100 µM | > 100 µM | > 100 µM | > 100 µM | > 100 µM | > 100 µM | > 100 µM | > 100 µM | > 100 µM | – | – | – | – | – | – | –
O=[N+]([O-])c1ccc2c(c1)C1=NN(c3ccccc3)C(c3ccccc3Br)C1CCC2 (configuration not stated) | > 50 µM | > 50 µM | 24.1 µM | 48.1 µM | > 50 µM | > 50 µM | > 50 µM | > 50 µM | > 50 µM | – | – | – | – | – | – | –
N#Cc1nc(NC(=O)c2ccccc2C(=O)O)c(C#N)[nH]1 | > 100 µM | > 100 µM | > 100 µM | > 100 µM | > 100 µM | > 100 µM | > 100 µM | > 100 µM | > 100 µM | – | – | – | – | – | – | –
NC(=O)N/N=C1\CC2C3CC4C2C4C13 (configuration not stated) | > 100 µM | > 100 µM | > 100 µM | > 100 µM | > 100 µM | > 100 µM | > 100 µM | > 100 µM | > 100 µM | – | – | – | – | – | – | –
Oc1[nH]c2ccccc2c1N=NC(=S)Nc1ccc(Cl)cc1 | > 100 µM | > 100 µM | > 100 µM | > 100 µM | > 100 µM | 99.6 µM | > 100 µM | > 100 µM | > 100 µM | – | – | – | – | – | – | –
CC(=O)c1ccc2c(c1)CC1(C2)Cc2ccccc2C1=O (configuration not stated) | > 100 µM | > 100 µM | 70 µM | 95.9 µM | > 100 µM | > 100 µM | > 100 µM | > 100 µM | > 100 µM | – | – | – | – | – | – | –
COC1=C(C)C(=O)c2c(c(COC(N)=O)c3n2CC(OC(C)=O)C3OC(C)=O)C1=O (configuration not stated) | 0.0581 µM | 1.6 µM | 0.202 µM | 0.54 µM | 1.06 µM | 0.515 µM | 0.387 µM | 0.816 µM | 0.789 µM | – | – | – | – | – | – | –
[O-]/[N+](=C\c1ccccc1OC(=S)S)c1ccc(Cl)cc1 | 50.3 µM | > 100 µM | 45 µM | 18.1 µM | 38.8 µM | 34.7 µM | > 100 µM | > 100 µM | > 100 µM | – | – | – | – | – | – | –
COc1ccc(CC2COc3cc(O)cc(O)c3C2=O)cc1O (configuration not stated) | 92.3 µM | > 100 µM | > 100 µM | > 100 µM | > 100 µM | > 100 µM | > 100 µM | > 100 µM | > 100 µM | – | – | – | – | – | – | –
C#CCN(Cc1ccc2nc(OC)c(OC)nc2c1)c1cc(OC)c(OC)c(OC)c1 | 78.7 µM | > 89.6 µM | 43.5 µM | 62.6 µM | > 48.9 µM | 43.5 µM | > 87.8 µM | > 100 µM | > 80.2 µM | – | – | – | – | – | – | –
O=c1cc(N2CCCC2)[nH]c(=O)n1-c1ccccc1 | > 100 µM | > 100 µM | > 100 µM | > 100 µM | > 100 µM | > 100 µM | > 100 µM | > 100 µM | > 100 µM | – | – | – | – | – | – | –
COC(=O)/C(C#N)=C(/NCCN)Nc1ccccc1 | > 100 µM | > 100 µM | > 100 µM | > 100 µM | > 100 µM | > 100 µM | > 100 µM | > 100 µM | > 100 µM | – | – | – | – | – | – | –
C=C(CN(C)C)C(=O)c1ccccc1[N+](=O)[O-] | 27 µM | > 70.5 µM and 41.1 µM | 8.2 µM | 18.5 µM and 5.11 µM | 15 µM and 15.5 µM | 38 µM and 34.1 µM | 33.2 µM and 35 µM | 34.1 µM and 51.6 µM | 54.5 µM and 31.8 µM | 22.2 µM | 2.11 µM | 3.98 µM | 12.6 µM | 17.4 µM | 18.8 µM | 17.8 µM
CCOC(=O)/C=C(\C(=O)OCC)n1ccc(=O)n(Cc2cn(COCCOC(C)=O)nn2)c1=O | 32.9 µM | > 100 µM | 41.3 µM | 35.3 µM | 34.9 µM | 41.1 µM | 47.7 µM | 41 µM | 36.7 µM | – | – | – | – | – | – | –
N#Cc1nc(C2CCC2)oc1N | > 100 µM | > 100 µM | > 100 µM | > 100 µM | > 100 µM | > 100 µM | > 100 µM | > 100 µM | > 100 µM | – | – | – | – | – | – | –
CC(=O)c1cnc2oc3ccc(O)cc3c2c1-c1ccccc1 | > 100 µM | > 100 µM | > 100 µM | > 100 µM | > 100 µM | > 100 µM | > 100 µM | > 100 µM | > 100 µM | – | – | – | – | – | – | –
